In US4356183A, “Antihypertensive 4-thiazolidinecarboxylic acids (pyridyl derivatives)” (Santen Pharmaceutical Co., Ltd., priority 1978, dated 1982):

Experiments:
[1] = tested on: contractile response to bradykinin (isolated guinea pig ileum); test: Augmentation of contractile response of isolated guinea pig ileum to bradykinin; format: cell-based; details: Cavia porcellus, bradykinin 0.005 μg/ml; compound added 5 min before; 30° C.; read-out: Bradykinin AC50 (50% augmentation of bradykinin activity inducing the contraction of guinea pig ileum)
[2] = target: T1, angiotensin I-converting enzyme (Oryctolagus cuniculus, UniProt P12822); test: Inhibition of angiotensin I-converting enzyme by spectrophotometry (HHL substrate); format: biochemical; details: enzyme from rabbit lung; 5 mM HHL; pH 8.3; 37° C., 30 min
T1 construct: angiotensin I-converting enzyme extracted from rabbit lung; from tissue; host or cells: rabbit lung
T1 sequence (P12822 34-1310): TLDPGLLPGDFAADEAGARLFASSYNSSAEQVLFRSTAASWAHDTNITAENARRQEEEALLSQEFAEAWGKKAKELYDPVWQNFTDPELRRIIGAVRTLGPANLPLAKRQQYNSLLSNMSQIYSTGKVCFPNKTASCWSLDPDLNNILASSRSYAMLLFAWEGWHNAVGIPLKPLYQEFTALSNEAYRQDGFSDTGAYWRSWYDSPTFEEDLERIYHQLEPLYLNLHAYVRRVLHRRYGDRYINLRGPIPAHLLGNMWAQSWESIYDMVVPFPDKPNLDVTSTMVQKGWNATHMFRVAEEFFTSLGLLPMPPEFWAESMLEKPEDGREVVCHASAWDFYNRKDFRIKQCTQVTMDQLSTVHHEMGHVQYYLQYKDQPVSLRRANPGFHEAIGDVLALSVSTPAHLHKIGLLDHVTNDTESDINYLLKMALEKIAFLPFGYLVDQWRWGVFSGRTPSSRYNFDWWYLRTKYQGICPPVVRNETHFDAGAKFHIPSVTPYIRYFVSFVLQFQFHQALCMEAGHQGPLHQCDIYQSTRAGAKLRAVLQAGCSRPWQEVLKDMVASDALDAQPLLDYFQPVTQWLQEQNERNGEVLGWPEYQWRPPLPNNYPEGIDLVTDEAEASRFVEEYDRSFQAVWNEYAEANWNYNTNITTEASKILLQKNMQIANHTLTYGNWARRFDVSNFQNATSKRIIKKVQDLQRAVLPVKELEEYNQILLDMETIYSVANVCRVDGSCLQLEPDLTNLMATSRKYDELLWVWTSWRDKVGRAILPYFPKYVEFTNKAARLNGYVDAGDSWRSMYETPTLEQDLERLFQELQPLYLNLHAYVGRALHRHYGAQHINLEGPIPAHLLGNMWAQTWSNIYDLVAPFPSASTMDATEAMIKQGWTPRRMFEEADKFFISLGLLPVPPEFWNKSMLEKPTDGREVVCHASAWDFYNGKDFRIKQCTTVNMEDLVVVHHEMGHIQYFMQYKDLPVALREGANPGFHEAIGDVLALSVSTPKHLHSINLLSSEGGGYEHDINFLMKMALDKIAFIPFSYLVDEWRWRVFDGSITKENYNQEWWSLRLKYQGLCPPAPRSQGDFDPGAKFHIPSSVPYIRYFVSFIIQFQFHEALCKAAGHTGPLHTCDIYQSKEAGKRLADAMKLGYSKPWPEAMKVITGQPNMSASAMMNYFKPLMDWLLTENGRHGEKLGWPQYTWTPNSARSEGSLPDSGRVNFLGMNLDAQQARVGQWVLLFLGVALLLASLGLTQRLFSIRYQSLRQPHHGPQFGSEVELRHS

[3] = tested on: contractile response of isolated guinea pig ileum to angiotensin I; test: Inhibition of contractile response of isolated guinea pig ileum to angiotensin I; format: cell-based; details: Cavia porcellus, angiotensin I 0.1 μg/ml; compound added 5 min before; 30° C.; read-out: Angiotensin I IC50 (50% inhibition of angiotensin I activity inducing the contraction of guinea pig ileum)

IC50 [2]	IC50 [3]	Compound	AC50 [1]
220 nM	56 nM	C[C@H](CS)C(=O)N1C(c2ccccc2O)SC[C@H]1C(=O)O (stereo partly drawn) [Compound 50]	0.7 nM
190 nM	120 nM	COc1ccc(C2SC[C@@H](C(=O)O)N2C(=O)[C@H](C)CS)c(O)c1 (stereo partly drawn) [Compound 77]	1.3 nM
